Test results: patent US10183944B2 (Asana Biosciences, LLC, priority 2011, dated 2019)
Structures can show the parent of a compound that is named as a salt. Each block holds one molecule with its values, some of them ahead of it.

Target: Syk (356-635 amino acids) catalytic domain (Homo sapiens (Human), UniProt P43405)
Test: Inhibition of enzymatic Syk kinase activity (radiometric)
Format: biochemical
Details: read-out: IC50 Syk
Source text: The objective of this assay was to examine by radiometric method the ability of compounds to inhibit Syk kinase enzyme. Syk is capable of phosphorylating substrates such as VAV, LAT, SLP-76, which in turn activate MAPK, PLCγ signaling pathways. […] This in vitro assay tests the ability of syk to phosphorylate a substrate peptide in the presence of ATP. By using a radio-labeled form of ATP, it is possible to measure the amount of phosphorylation of the substrate. The enzyme transfers a radio-labeled phosphate group from γ32 P labeled ATP to pG4T. Briefly the enzyme was incubated with substrate, radio-labeled & cold ATP and substrate in buffer with or without compounds. At the end of the reaction, the reaction mixture was transferred on to a Multiscreen filter plate and unreacted γ^32P ATP was washed off. The filter plate was dried and the radioactivity was measured on a scintillation counter to estimate the incorporated radioactivity on the substrate. The percent inhibition of activity of the enzyme was calculated by comparing counts in the presence and absence of compounds. […] 2.5 μL of 10% DMSO or compound in 10% DMSO was added to the wells in a 96 well V-bottom plate. Optimized concentration of in-house Syk enzyme (different batches of Syk (356-635) kinase domain) were used at optimized concentrations) ranging from 0.035 ng to 7.5 ng/reaction diluted in assay buffer was added to a total volume of 12.5 μL). Compound and protein were incubated for 30 minutes at room temperature on a plate shaker. Ten μL of a substrate mix containing 100 μM ATP (0.25 μL), γ-P^32-ATP (0.1 μL; 10 μCi/μL), pG4T (0.25 μL; 10 mg/mL) and 1× assay buffer (9.4 μL) was added to all the wells. Samples were incubated at 30° C. for 10 minutes after mixing. The reaction was stopped by the addition of 8N HCl (13 μL) containing 100 mM ATP. Thirty μL of sample was transferred to the center of a 2×2 cm^2 Whatman® P81 chromatography paper. After allowing the sample to dry for one minute, the assay squares were washed 3 times for 5 minutes each in ortho-phosphoric acid (0.5%) and once in acetone. Assay squares were dried for 15 minutes in a 30° C. oven and transferred to 96 well optiplate. Microscint-O® reagent (100 μL, Perkin Elmer) was added to each well, the plate was sealed with Topseal®-A microplates and incubated for 10 minutes at room temperature at very low speed on rocker and the plate was read in the Topcount® NXL instrument. The following calculations were made: Fold induction=radioactivity counts (uncorrected values) in positive control/substrate control.

SMILES: O=c1[nH]ncc2nc(N3CCCCCC3)nc(Nc3ccc(N4CCC(CCCO)CC4)cc3)c12 [Example 194, 2-(azepan-1-yl)-4-((4-(4-(3-hydroxypropyl)piperidin-1-yl)phenyl)amino)pyrimido[4,5-d]pyridazin-5(6H)-one]
- IC50: > 100 nM

SMILES: O=c1[nH]ncc2nc(N3CCCCCC3)nc(Nc3ccc4c(c3)OCO4)c12 [Example 327, 2-(azepan-1-yl)-4-(benzo[d][1,3]dioxol-5-ylamino)pyrimido[4,5-d]pyridazin-5(6H)-one]
- IC50: > 100 nM

SMILES: CCn1nnc(-c2ccc(Nc3nc(N4CCCCCC4)nc4cn[nH]c(=O)c34)cc2)n1 [Example 225, 2-(azepan-1-yl)-4-((4-(2-ethyl-2H-tetrazol-5-yl)phenyl)amino)pyrimido[4,5-d]pyridazin-5(6H)-one]
- IC50: > 100 nM

SMILES: COc1nc(Nc2ccc(CN3CCNCC3)cc2)c2c(=O)[nH]ncc2n1 [Example 61, 2-methoxy-4-((4-(piperazin-1-ylmethyl)phenyl)amino)pyrimido[4,5-d]pyridazin-5(6H)-one hydrochloride]
- IC50: > 100 nM

SMILES: N#CCC1CCN(CCN2CCC(Nc3nc(N4CCCCCC4)nc4cn[nH]c(=O)c34)CC2)CC1 [Example 204, 2-(1-(2-(4-((2-(azepan-1-yl)-5-oxo-5,6-dihydropyrimido[4,5-d]pyridazin-4-yl)amino)piperidin-1-yl)ethyl)piperidin-4-yl)acetonitrile]
- IC50: > 100 nM

SMILES: N#CC1CCN(c2nc(Nc3ccc(CN4CCC(C(=O)O)CC4)cc3)c3c(=O)[nH]ncc3n2)CC1 [Example 76, 1-(4-((2-(4-cyanopiperidin-1-yl)-5-oxo-5,6-dihydropyrimido[4,5-d]pyrimido[4,5-d]pyridazin-4-yl)amino)benzyl)piperidine-4-carboxylic acid]
- IC50: > 100 nM

SMILES: COc1cc(Nc2nc(N3CCC(CC#N)CC3)nc3cn[nH]c(=O)c23)cc(OC)c1OC [Example 326, 2-(1-(5-oxo-4-((3,4,5-trimethoxyphenyl)amino)-5,6-dihydropyrimido[4,5-d]pyridazin-2-yl)piperidin-4-yl) acetonitrile]
- IC50: > 100 nM

SMILES: O=c1[nH]ncc2nc(N3CCCCCC3)nc(Nc3ccc(N4CCC(F)(F)CC4)cc3)c12 [Example 279, 2-(azepan-1-yl)-4-((4-(4,4-difluoropiperidin-1-yl)phenyl)amino) pyrimido[4,5-d]pyridazin-5(6H)-one]
- IC50: > 100 nM

SMILES: CC(C)(C#N)C1CCN(c2ccc(Nc3nc(-c4ccccc4)nc4cn[nH]c(=O)c34)cc2)CC1 [Example 119, 2-methyl-2-(1-(4-((5-oxo-2-phenyl-5,6-dihydropyrimido[4,5-d]pyridazin-4-yl)amino)phenyl)piperidin-4-yl) propanenitrile]
- IC50: > 100 nM

SMILES: O=c1[nH]ncc2nc(-c3ccccc3)nc(Nc3ccc(N4CCC5(CC4)COC5)cc3)c12 [Example 17, 4-(4-(2-oxa-7-azaspiro[3.5]nonan-7-yl)phenylamino)-2-phenylpyrimido[4,5-d]pyridazin-5(6H)-one]
- IC50: > 100 nM

SMILES: O=c1[nH]ncc2nc(N3CCCCCC3)nc(Nc3ccc(N4CCC(CCF)CC4)cc3)c12 [Example 298, 2-(azepan-1-yl)-4-((4-(4-(2-fluoroethyl)piperidin-1-yl)phenyl)amino) pyrimido[4,5-d]pyridazin-5-(6H)-one]
- IC50: > 100 nM

SMILES: O=c1[nH]ncc2nc(N3CCCCCC3)nc(Nc3ccc(OC(F)(F)F)cc3)c12 [Example 303, 2-(azepan-1-yl)-4-((4-(trifluoromethoxy)phenyl)amino)pyrimido[4,5-d]pyridazin-5(6H)-one]
- IC50: > 100 nM

SMILES: N#CCC1CCN(c2nc(Nc3ccc(N4CCC(O)CC4)cc3)c3c(=O)n(COP(=O)(O)O)ncc3n2)CC1 [Example 330, sodium (2-(4-(cyanomethyl)piperidin-1-yl)-4-((4-(4-hydroxypiperidin-1-yl)phenyl)amino)-5-oxopyrimido[4,5-d]pyridazin-6(5H)-yl)methyl phosphate]
- IC50: > 100 nM

SMILES: O=c1[nH]ncc2nc(N3CCCCCC3)nc(Nc3cccc(CO)c3)c12 [Example 310, 2-(azepan-1-yl)-4-((3-(hydroxymethyl)phenyl)amino)pyrimido[4,5-d]pyridazin-5(6H)-one]
- IC50: > 100 nM

Results, then the molecule that gave them:

- IC50: > 100 nM
SMILES: O=C(O)C1CC12CCN(c1ccc(Nc3nc(-c4ccccc4)nc4cn[nH]c(=O)c34)cn1)CC2 (stereo not shown) [Example 137, 6-(5-((5-oxo-2-phenyl-5,6-dihydropyrimido[4,5-d]pyridazin-4-yl)amino)pyridin-2-yl)-6-azaspiro[2.5]octane-1-carboxylic acid]

- IC50: > 100 nM
SMILES: N#CCC1CCN(c2nc(Nc3ccc(-c4nnn(CC(=O)O)n4)cc3)c3c(=O)[nH]ncc3n2)CC1 [Example 241, 2-(5-(4-((2-(4-(cyanomethyl)piperidin-1-yl)-5-oxo-5,6-dihydropyrimido[4,5-d]pyridazin-4-yl)amino)phenyl)-2H-tetrazol-2-yl)acetic acid]

- IC50: > 100 nM
SMILES: O=C(c1ccc(Nc2nc(-c3ccccc3)nc3cn[nH]c(=O)c23)cc1)N1CCOCC1 [Example 9, 4-(4-(morpholine-4-carbonyl)phenylamino)-2-phenylpyrimido[4,5-d]pyridazin-5(6H)-one]

- IC50: > 100 nM
SMILES: O=C(O)C1CC12CCN(Cc1ccc(Nc3nc(-c4ccccc4)nc4cn[nH]c(=O)c34)cc1)CC2 (stereo not shown) [Example 21, 6-(4-(5-oxo-2-phenyl-5,6-dihydropyrimido[4,5-d]pyridazin-4-ylamino)benzyl)-6-azaspiro[2.5]octane-1-carboxylic acid]

- IC50: > 100 nM
SMILES: COc1ccc(Nc2nc(N3CCCCCC3)nc3cn[nH]c(=O)c23)cc1OC [Example 318, 2-(azepan-1-yl)-4-((3,4-dimethoxyphenyl)amino)pyrimido[4,5-d]pyridazin-5(6H)-one]

- IC50: > 100 nM
SMILES: COc1cccc(-c2nc(Nc3ccc(N4CCC(CC#N)CC4)cc3)c3c(=O)[nH]ncc3n2)c1 [Example 163, 2-(1-(4-((2-(3-methoxyphenyl)-5-oxo-5,6-dihydropyrimido[4,5-d]pyridazin-4-yl)amino)phenyl)piperidin-4-yl)acetonitrile]

- IC50: > 100 nM
SMILES: CS(=O)(=O)c1ccc(Nc2nc(N3CCC(CC#N)CC3)nc3cn[nH]c(=O)c23)cc1 [Example 333, 2-(1-(4-((4-(methylsulfonyl)phenyl)amino)-5-oxo-5,6-dihydropyrimido[4,5-d]pyridazin-2-yl)piperidin-4-yl) acetonitrile]

- IC50: < 100 nM
SMILES: O=C(O)C1CC12CCN(c1ccc(Nc3nc(N4CCOCC4)nc4cn[nH]c(=O)c34)cc1)CC2 (stereo not shown) [Example 42, 6-(4-((2-morpholino-5-oxo-5,6-dihydropyrimido[4,5-d]pyridazin-4-yl)amino)phenyl)-6-azaspiro[2.5]octane-1-carboxylic acid]

- IC50: < 100 nM
SMILES: N#CC1CCN(c2nc(Nc3ccc(N4CCC(CC(=O)O)CC4)cc3)c3c(=O)[nH]ncc3n2)CC1 [Example 75, 2-(1-(4-((2-(4-cyanopiperidin-1-yl)-5-oxo-5,6-dihydropyrimido[4,5-d]pyridazin-4-yl)amino)phenyl)piperidin-4-yl)acetic acid]

- IC50: < 100 nM
SMILES: N#CCC1CCN(c2nc(Nc3ccc(CO)cc3)c3c(=O)[nH]ncc3n2)CC1 [Example 332, 2-(1-(4-((4-(hydroxymethyl)phenyl)amino)-5-oxo-5,6-dihydropyrimido[4,5-d]pyridazin-2-yl)piperidin-4-yl) acetonitrile]

- IC50: > 100 nM
SMILES: O=c1[nH]ncc2nc(N3CCOCC3)nc(Nc3ccc(OCCN4CCNCC4)cc3)c12 [Example 176, 2-morpholino-4-((4-(2-(piperazin-1-yl)ethoxy)phenyl)amino)pyrimido[4,5-d]pyridazin-5(6H)-one]

- IC50: < 10 nM
SMILES: N#CCC1CCN(c2nc(Nc3ccc(N4CCN(CCN)CC4)cc3)c3c(=O)[nH]ncc3n2)CC1 [Example 257, 2-(1-(4-((4-(4-(2-aminoethyl)piperazin-1-yl)phenyl)amino)-5-oxo-5,6-dihydropyrimido[4,5-d]pyridazin-2-yl)piperidin-4-yl)acetonitrile]

- IC50: < 100 nM
SMILES: O=c1[nH]ncc2nc(N3CCCCCC3)nc(Nc3ccc(OCCCO)cc3)c12 [Example 296, 2-(azepan-1-yl)-4-((4-(3-hydroxypropoxy)phenyl)amino)pyrimido[4,5-d]pyridazin-5(6H)-one]

- IC50: < 10 nM
SMILES: NCC(=O)N1CCN(c2ccc(Nc3nc(-c4ccccc4)nc4cn[nH]c(=O)c34)cc2)CC1 [Example 14, 4-(4-(4-(2-aminoacetyl)piperazin-1-yl)phenylamino)-2-phenylpyrimido[4,5-d]pyridazin-5(6H)-one]
